From US7232912B2, “Indazole compounds, pharmaceutical compositions, and methods for mediating or inhibiting cell proliferation” (Agouron Pharmaceuticals, Inc., priority 2000, dated 2007)

How the values were obtained:
CDK4/cyclin D3 = CDK4/cyclin D3 (Homo sapiens, UniProt P11802); experiment: Inhibition of CDK4/Cyclin D Retinoblastoma Kinase Activity; format: biochemical; conditions: for Ki: apparent Ki; for inhibition at 10 µM: read-out: CDK4/D % inhibition at 10 μM
Description: (§1) Cyclin-dependent kinase activity was measured by quantifying the enzyme-catalyzed, time-dependent incorporation of radioactive phosphate from [^32P]ATP or [^33P]ATP into a protein substrate. Unless noted otherwise, assays were performed in 96-well plates in a total volume of 50 μL, in the presence of 10 mM HEPES (N-[2-hydroxyethyl]piperazine-N′-[2-ethanesulfonic acid]) (pH 7.4), 10 mM MgCl2, 25 μM adenosine triphosphate (ATP), 1 mg/mL ovalbumin, 5 μg/mL leupeptin, 1 mM dithiothreitol, 10 mM beta-glycerophosphate, 0.1 mM sodium vanadate, 1 mM sodium fluoride, 2.5 mM ethylene glycol-bis(β-aminoethyl ethKer)-N,N,N′N′-tetraacetic acid (EGTA), 2% (v/v) dimethylsulfoxide, and 0.03–0.4 μCi [^32/33P]ATP per reaction. Reactions were initiated with appropriate enzyme, incubated at 30° C., and terminated after 20 minutes by the addition of ethylenediaminetetraacetic acid (EDTA) to 250 mM. The phosphorylated substrate was then captured on a nitrocellulose or phosphocellulose membrane using a 96-well filtration manifold, and unincorporated radioactivity was removed by repeated washing with 0.85% phosphoric acid. Radioactivity was quantified by exposing the dried membranes to a phosphorimager.
(§2) Apparent Ki values were measured by assaying enzyme activity in the presence of different inhibitor compound concentrations and subtracting the background radioactivity measured in the absence of enzyme. Inhibition data were fit to an equation for competitive inhibition using Kaleidagraph (Synergy Software), or were fit to an equation for competitive tight-binding inhibition using the software KineTic (BioKin, Ltd.).
Inhibition of CDK4/Cyclin D Retinoblastoma Kinase Activity
A complex of human CDK4 and cyclin D3, or a complex of human CDK4 and genetically truncated (1–264) cyclin D3, was purified using traditional biochemical chromatographic techniques from insect cells that had been co-infected with the corresponding baculovirus expression vectors (see e.g., Meijer and Kim, “Chemical Inhibitors of Cyclin-Dependent Kinases,” Methods in Enzymol,. vol. 283 (1997), pp. 113–128.). The enzyme complex (5 or 50 nM) was assayed with 0.3–0.5 μg of purified recombinant retinoblastoma protein fragment (Rb) as a substrate. The engineered Rb fragment (residues 386–928 of the native retinoblastoma protein; 62.3 kDa) contains the majority of the phosphorylation sites found in the native 106-kDa protein, as well as a tag of six histidine residues for ease of purification. Phosphorylated Rb substrate was captured by microfiltration on a nitrocellulose membrane and quantified using a phosphorimager as described above. For measurement of tight-binding inhibitors, the enzyme complex concentration was lowered to 5 nM, and the assay duration was extended to 60 minutes, during which the time-dependence of product formation was linear.

CDK2/cyclin A = target: T1, CDK2/cyclin A (Homo sapiens, UniProt P24941); experiment: Inhibition of CDK2/Cyclin A Retinoblastoma Kinase Activity; format: biochemical; conditions: for Ki: apparent Ki; for inhibition at 10 µM: read-out: CDK2/A % inhibition at 10 μM
T1 construct: made in house; host or cells: CDK2: insect cells (baculovirus); cyclin A: E. coli
Description: as §1, §2
Inhibition of CDK2/Cyclin A Retinoblastoma Kinase Activity
CDK2 was purified using published methodology (Rosenblatt et al., “Purification and Crystallization of Human Cyclin-dependent Kinase 2,” J. Mol. Biol., vol. 230, 1993, pp. 1317–1319) from insect cells that had been infected with a baculovirus expression vector. […] A complex of CDK2 and proteolyzed cyclin A was prepared and purified by gel filtration. The substrate for this assay was the same Rb substrate fragment used for the CDK4 assays, and the methodology of the CDK2/cyclin A and the CDK4/cyclin D3 assays was essentially the same, except that CDK2 was present at 150 nM or 5 nM. Ki values were measured as described above.

HCT 116 cell line = experiment: Inhibition of Cell Growth (MTT tetrazolium salt assay); format: cell-based; conditions: Homo sapiens, HCT 116, MTT; for IC50: 50% inhibition of growth, read-out: HCT 116 IC50; for IC90: read-out: HCT 116 IC90
Description: Inhibition of Cell Growth: Assessment of Cytotoxicity
Inhibition of cell growth was measured using the tetrazolium salt assay, which is based on the ability of viable cells to reduce 3-(4,5-dimethylthiazol-2-yl)-2,5-[2H]-diphenyltetrazolium bromide (MTT) to formazan (Mossman, Journal of Immunological Methods, vol. 65 (1983), pp. 55–58). The water-insoluble purple formazan product was then detected spectrophotometrically. The HCT 116 cell line was grown in 96-well plates. Cells were plated in the appropriate medium at a volume of 135 μl/well in McCoy's 5A Medium. Plates were incubated for four hours before addition of inhibitor compounds. Different concentrations of inhibitor compounds were added in 0.5% (v/v) dimethylsulfoxide (15 μL/well), and cells were incubated at 37° C. (5% CO2) for four to six days (depending on cell type). At the end of the incubation, MTT was added to a final concentration of 0.2 mg/mL, and cells were incubated for 4 hours more at 37° C. After centrifugation of the plates and removal of medium, the absorbance of the formazan (solubilized in dimethylsulfoxide) was measured at 540 nm. The concentration of inhibitor compound causing 50% inhibition of growth was determined from the linear portion of a semi-log plot of inhibitor concentration versus percentage inhibition. All results were compared to control cells treated only with 0.5% (v/v) dimethylsulfoxide.

Sequence of CDK4/cyclin D3 (P11802 2-303 limits assumed): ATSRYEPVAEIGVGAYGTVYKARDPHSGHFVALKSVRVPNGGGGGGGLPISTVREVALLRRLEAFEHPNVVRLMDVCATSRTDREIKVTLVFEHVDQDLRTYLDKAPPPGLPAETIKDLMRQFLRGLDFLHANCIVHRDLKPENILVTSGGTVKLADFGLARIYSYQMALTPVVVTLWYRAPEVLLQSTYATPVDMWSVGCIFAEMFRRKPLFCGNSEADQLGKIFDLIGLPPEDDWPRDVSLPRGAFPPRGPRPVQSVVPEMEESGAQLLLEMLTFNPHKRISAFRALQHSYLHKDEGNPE
Sequence of CDK4/cyclin D3 (P30281 1-264 limits assumed, further chain): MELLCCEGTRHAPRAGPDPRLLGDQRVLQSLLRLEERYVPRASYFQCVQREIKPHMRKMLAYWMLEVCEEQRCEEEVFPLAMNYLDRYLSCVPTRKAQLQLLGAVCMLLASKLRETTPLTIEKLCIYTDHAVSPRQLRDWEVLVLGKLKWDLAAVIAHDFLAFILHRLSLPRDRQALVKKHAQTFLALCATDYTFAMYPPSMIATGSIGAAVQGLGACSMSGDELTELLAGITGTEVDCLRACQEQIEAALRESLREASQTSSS

Compound	Ki (CDK4/cyclin D3)	Ki (CDK2/cyclin A)	IC90 (HCT 116 cell line)	further results
Cc1c(C(N)=O)cncc1-c1ccc2[nH]nc(-c3nc4ccccc4[nH]3)c2c1 [Example 64, 5-[3-(1H-Benzoimidazol-2-yl)-1H-indazol-5-yl]-4-methyl-nicotinamide]	190 nM	14 nM	5000 nM	IC50 (HCT 116 cell line): 1300 nM
Cc1c(O)cncc1-c1ccc2[nH]nc(-c3nc4ccccc4[nH]3)c2c1 [Example 77, 5-[3-(1H-Benzoimidazol-2-yl)-1H-indazol-5-yl]-4-methyl-pyridin-3-ol]	5.8 nM	0.38 nM	500 nM	IC50 (HCT 116 cell line): 310 nM
Cc1c(-c2ccc3[nH]nc(-c4nc5ccccc5[nH]4)c3c2)cnc2ccccc12 [Example 76, 3-[3-(1H-Benzoimidazol-2-yl)-1H-indazol-5-yl]-4-methyl-quinoline]	150 nM	27 nM	500 nM	IC50 (HCT 116 cell line): 500 nM
Cc1c(CN2CCOCC2)cncc1-c1ccc2[nH]nc(-c3nc4ccccc4[nH]3)c2c1 [Example 91, 3-(1H-Benzoimidazol-2-yl)-5-(4-methyl-5-morpholin-4-ylmethyl-pyridin-3-yl)-1H-indazole]	7.5 nM	2.8 nM	> 500 nM	IC50 (HCT 116 cell line): 340 nM
Oc1ccc(-c2ccc3[nH]nc(-c4nc5ccccc5[nH]4)c3c2)cc1 [8′, 4-[3-(1H-Benzoimidazol-2-yl)-1H-indazol-5-yl]-phenol]	590 nM	370 nM	–	–
Cc1c(CNCC(C)C)cncc1-c1ccc2[nH]nc(-c3nc4ccccc4[nH]3)c2c1 [Example 87, {5-[3-(1H-Benzoimidazol-2-yl)-1H-indazol-5-yl]-4-methyl-pyridin-3-ylmethyl}-isobutyl-amine]	4.2 nM	1.9 nM	420 nM	IC50 (HCT 116 cell line): 160 nM
COc1cccc(-c2ccc3[nH]nc(-c4ccccc4)c3c2)c1 [Example 86, 5-(3-Methoxyphenyl)-3-(phenyl)-1H-indazole]	–	–	–	inhibition at 10 µM (CDK4/cyclin D3): 18%; inhibition at 10 µM (CDK2/cyclin A): 45%
Cc1c(CNC2CCCC2)cncc1-c1ccc2[nH]nc(-c3nc4ccccc4[nH]3)c2c1 [Example 92, {5-[3-(1H-Benzoimidazol-2-yl)-1H-indazol-5-yl]-4-methyl-pyridin-3-ylmethyl}-cyclopentyl-amine]	7.8 nM	2.7 nM	500 nM	IC50 (HCT 116 cell line): 180 nM
Cc1ccccc1-c1ccc2[nH]nc(-c3ccccc3)c2c1 [Example 11, 5-(2-Methylphenyl)-3-phenyl-1H-indazole]	–	2600 nM	–	inhibition at 10 µM (CDK4/cyclin D3): 39%
CCNCc1cncc(-c2ccc3[nH]nc(-c4nc5c(SC)cccc5[nH]4)c3c2)c1C [Example 81, Ethyl-4-{methyl-5-[3-(4-methylsulfanyl-1H-benzoimidazol-2-yl)-1H-indazol-5-yl]-pyridin-3-ylmethyl}-amine]	0.8 nM	4.9 nM	210 nM	–
CCNCc1cncc(-c2ccc3[nH]nc(-c4nc5c(C(=O)NC)cccc5[nH]4)c3c2)c1C [Example 80, 2-[5-(5-Ethylaminomethyl-4-methyl-pyridin-3-yl)-1H-indazol-3-yl]-1H benzoimidazole-4carboxylic acid methylamide]	14 nM	–	220 nM	–
c1ccc(CNc2ccc3[nH]nc(-c4ccc[nH]4)c3c2)cc1 [Example 85, 5-(Benzylamino)-3-(2-Pyrrolyl)-1H-indazole]	16000 nM	6600 nM	–	–
C(=C\c1ccc2[nH]nc(/C=C/c3ccccc3)c2c1)/c1ccccc1 [Example 2, 3,5-Distyryl-1H-Indazole]	7900 nM	–	–	–
Fc1cccc(F)c1-c1ccc2[nH]nc(-c3ccccc3)c2c1 [Example 83, 5-(2,6-Difluorophenyl)-3-Phenyl-1H-indazole]	–	–	–	inhibition at 10 µM (CDK4/cyclin D3): 30%; inhibition at 10 µM (CDK2/cyclin A): 30%
Cc1cc(O)ccc1-c1ccc2[nH]nc(-c3ccccc3)c2c1 [Example 13, 5-(4-Hydroxy-2-methylphenyl)-3-phenyl-1H-indazole]	3400 nM	2700 nM	–	–
c1ccc2c(-c3ccc4[nH]nc(-c5nc6c(Cn7ccnc7)cccc6[nH]5)c4c3)cncc2c1 [Example 40, 4-[3-(4-Imidazol-1-ylmethyl-1H-benzoimidazol-2-yl)-1H-indazol-5-yl]-isoquinoline]	2.2 nM	0.38 nM	–	–
O=[N+]([O-])c1ccc2[nH]nc(-c3ccc[nH]3)c2c1 [18b′, 5-Nitro-3-(2-Pyrrolyl)-1H-indazole]	6600 nM	3300 nM	–	–
FC(F)(F)c1ccccc1-c1ccc2[nH]nc(-c3ccccc3)c2c1 [Example 12, 3-Phenyl-5-[2-(trifluormethyl)phenyl]-1H-indazole]	–	6300 nM	–	CDK4/D % inhibition at 5 μM (CDK4/cyclin D3; at 5 μM): 19%
O=[N+]([O-])c1ccc2[nH]nc(-c3ccccc3)c2c1 [Intermediate 11a, 5-Nitro-3-phenyl-1H-indazole]	–	13000 nM	–	inhibition at 100 µM (CDK4/cyclin D3; read-out: CDK4/D % inhibition at 100 μM): 48%
COc1ccc(-c2ccc3[nH]nc(-c4nc5ccccc5[nH]4)c3c2)cc1 [Example 7′, 3-(1H-Benzoimidazol-2-yl)-5-(4-methoxyphenyl)-1H-indazole]	1200 nM	790 nM	–	–
CCNCc1cncc(-c2ccc3[nH]nc(-c4nc5c(NC(C)=O)cccc5[nH]4)c3c2)c1C [Example 82, N-2-[5-(5-Ethylaminomethyl-4-methyl-pyridin-3-yl)-1H-indazol-3-yl-1 benzoimidazol-4-yl]-acetamide]	110 nM	–	> 500 nM	–
Oc1cc(F)cc(F)c1-c1ccc2[nH]nc(-c3nc4ccccc4[nH]3)c2c1 [Example 51]	1100 nM	400 nM	–	–
c1ccc(-c2n[nH]c3ccc(-c4ccncc4)cc23)cc1 [Example 14, 3-Phenyl-5-(Pyrid-4-yl)-1H-indazole]	2400 nM	2500 nM	–	–
c1c[nH]c(-c2n[nH]c3ccc(-c4ccncc4)cc23)c1 [Example 18, 5-(4Pyridyl)-3-(2-Pyrrolyl)-1H-indazole]	960 nM	–	–	–
COc1cccc(-c2ccc3[nH]nc(-c4nc5ccccc5[nH]4)c3c2)c1C [Example 9′, 3-(1H-Benzoimidazol-2-yl)-5-(3-methoxy-2-methyl-phenyl)-1H-indazole]	2200 nM	670 nM	–	–
Cc1cnccc1-c1ccc2[nH]nc(/C=C/c3ccccc3)c2c1 [Example 41, 5-(3-Methyl-pyridin-4-yl)-3-(E)-styryl-1H-indazole]	78 nM	250 nM	–	–
c1ccc(-c2n[nH]c3ccc(-c4cccnc4)cc23)cc1 [Example 14b, 3-Phenyl-5-(pyrid-3-yl)-1H-indazole]	–	–	–	inhibition at 1 µM (CDK4/cyclin D3; read-out: CDK4/D % inhibition at 1 μM): 20%
